What was measured:
[1] = biological target: Serine/threonine-protein kinase MAK (Homo sapiens) (UniProt P20794); conditions: Compound concentration 1000.0 nM
[2] = biological target: STE20-like serine/threonine-protein kinase (Homo sapiens) (UniProt Q9H2G2); conditions: Compound concentration 1000.0 nM
[3] = biological target: Mitogen-activated protein kinase 11 (Homo sapiens) (UniProt Q15759); conditions: Compound concentration 1000.0 nM
[4] = biological target: D(1B) dopamine receptor (Homo sapiens) (UniProt P21918); conditions: Compound concentration 10.0 uM
[5] = biological target: Serine/threonine-protein kinase Nek5 (Homo sapiens) (UniProt Q6P3R8); conditions: Compound concentration 1000.0 nM
[6] = biological target: Serine/threonine-protein kinase 17B (Homo sapiens) (UniProt O94768); conditions: Compound concentration 1000.0 nM
[7] = biological target: Serine/threonine-protein kinase RIO2 (Homo sapiens) (UniProt Q9BVS4); conditions: Compound concentration 1000.0 nM
[8] = biological target: Serine/threonine-protein kinase/endoribonuclease IRE1 (Homo sapiens) (UniProt O75460); conditions: Compound concentration 1000.0 nM
[9] = biological target: Tyrosine-protein kinase JAK1 (Homo sapiens) (UniProt P23458); conditions: Compound concentration 1000.0 nM
[10] = biological target: 1-phosphatidylinositol 3-phosphate 5-kinase (Homo sapiens) (UniProt Q9Y2I7); conditions: Compound concentration 1000.0 nM
[11] = biological target: Mitogen-activated protein kinase 12 (Homo sapiens) (UniProt P53778); conditions: Compound concentration 1000.0 nM
[12] = biological target: Mitogen-activated protein kinase kinase kinase 5 (Homo sapiens) (UniProt Q99683); conditions: Compound concentration 1000.0 nM
[13] = biological target: Homeodomain-interacting protein kinase 4 (Homo sapiens) (UniProt Q8NE63); conditions: Compound concentration 1000.0 nM
[14] = biological target: Peripheral plasma membrane protein CASK (Homo sapiens) (UniProt O14936); conditions: Compound concentration 1000.0 nM
[15] = biological target: Death-associated protein kinase 1 (Homo sapiens) (UniProt P53355); conditions: Compound concentration 1000.0 nM
[16] = system: Receptor-type tyrosine-protein kinase FLT3 (Homo sapiens), P36888 [UNDEFINED MUTATION]; conditions: Compound concentration 1000.0 nM
[17] = biological target: Serine/threonine-protein kinase DCLK2 (Homo sapiens) (UniProt Q8N568); conditions: Compound concentration 1000.0 nM
[18] = biological target: Phosphatidylinositol 3-kinase C2 domain-containing subunit gamma (Homo sapiens) (UniProt O75747); conditions: Compound concentration 1000.0 nM
[19] = biological target: LIM domain kinase 2 (Homo sapiens) (UniProt P53671); conditions: Compound concentration 1000.0 nM
[20] = biological target: 5-hydroxytryptamine receptor 1A (Homo sapiens) (UniProt P08908); conditions: Compound concentration 10.0 uM
[21] = biological target: Fibroblast growth factor receptor 1 (Homo sapiens) (UniProt P11362); conditions: Compound concentration 1000.0 nM
[22] = system: Phosphatidylinositol 4,5-bisphosphate 3-kinase catalytic subunit alpha isoform (Homo sapiens), P42336 [E545A]; conditions: Compound concentration 1000.0 nM
[23] = system: Epidermal growth factor receptor (Homo sapiens), P00533 [UNDEFINED MUTATION]; conditions: Compound concentration 1000.0 nM
[24] = biological target: Ephrin type-A receptor 1 (Homo sapiens) (UniProt P21709); conditions: Compound concentration 1000.0 nM
[25] = biological target: Tyrosine-protein kinase ABL1 (Homo sapiens) (UniProt P00519); conditions: Compound concentration 1000.0 nM
[26] = biological target: Serine/threonine-protein kinase Sgk3 (Homo sapiens) (UniProt Q96BR1); conditions: Compound concentration 1000.0 nM
[27] = system: Tyrosine-protein kinase ABL1 (Homo sapiens), P00519 [F317I]; conditions: Compound concentration 1000.0 nM
[28] = biological target: Serine/threonine-protein kinase WNK3 (Homo sapiens) (UniProt Q9BYP7); conditions: Compound concentration 1000.0 nM
[29] = biological target: Non-receptor tyrosine-protein kinase TYK2 (Homo sapiens) (UniProt P29597); conditions: Compound concentration 1000.0 nM
[30] = biological target: cGMP-dependent protein kinase 1 (Homo sapiens) (UniProt Q13976); conditions: Compound concentration 1000.0 nM
[31] = biological target: Myosin light chain kinase, smooth muscle (Homo sapiens) (UniProt Q15746); conditions: Compound concentration 1000.0 nM
[32] = biological target: Mitogen-activated protein kinase kinase kinase kinase 5 (Homo sapiens) (UniProt Q9Y4K4); conditions: Compound concentration 1000.0 nM
[33] = biological target: Dual specificity protein kinase TTK (Homo sapiens) (UniProt P33981); conditions: Compound concentration 1000.0 nM
[34] = biological target: Serine/threonine-protein kinase MRCK beta (Homo sapiens) (UniProt Q9Y5S2); conditions: Compound concentration 1000.0 nM
[35] = biological target: Mitogen-activated protein kinase kinase kinase 20 (Homo sapiens) (UniProt Q9NYL2); conditions: Compound concentration 1000.0 nM
[36] = biological target: Histamine H4 receptor (Homo sapiens) (UniProt Q9H3N8); conditions: Compound concentration 10.0 uM
[37] = biological target: Dual specificity tyrosine-phosphorylation-regulated kinase 1B (Homo sapiens) (UniProt Q9Y463); conditions: Compound concentration 1000.0 nM
[38] = system: Receptor-type tyrosine-protein kinase FLT3 (Homo sapiens), P36888 [UNDEFINED MUTATION]; conditions: Compound concentration 1000.0 nM; remark: listed apart in the source
[39] = biological target: Tyrosine-protein kinase ZAP-70 (Homo sapiens) (UniProt P43403); conditions: Compound concentration 1000.0 nM
[40] = system: Mast/stem cell growth factor receptor Kit (Homo sapiens), P10721 [D816H]; conditions: Compound concentration 1000.0 nM
[41] = biological target: Cyclin-dependent kinase 8 (Homo sapiens) (UniProt P49336); conditions: Compound concentration 1000.0 nM
[42] = biological target: Serine/threonine-protein kinase ULK2 (Homo sapiens) (UniProt Q8IYT8); conditions: Compound concentration 1000.0 nM
[43] = biological target: Phosphatidylinositol 4-phosphate 5-kinase type-1 alpha (Homo sapiens) (UniProt Q99755); conditions: Compound concentration 1000.0 nM
[44] = biological target: Rho-associated protein kinase 1 (Homo sapiens) (UniProt Q13464); conditions: Compound concentration 1000.0 nM

Chain of Receptor-type tyrosine-protein kinase FLT3 (Homo sapiens), P36888 [UNDEFINED MUTATION] (P36888 whole entry, looked up, change not shown): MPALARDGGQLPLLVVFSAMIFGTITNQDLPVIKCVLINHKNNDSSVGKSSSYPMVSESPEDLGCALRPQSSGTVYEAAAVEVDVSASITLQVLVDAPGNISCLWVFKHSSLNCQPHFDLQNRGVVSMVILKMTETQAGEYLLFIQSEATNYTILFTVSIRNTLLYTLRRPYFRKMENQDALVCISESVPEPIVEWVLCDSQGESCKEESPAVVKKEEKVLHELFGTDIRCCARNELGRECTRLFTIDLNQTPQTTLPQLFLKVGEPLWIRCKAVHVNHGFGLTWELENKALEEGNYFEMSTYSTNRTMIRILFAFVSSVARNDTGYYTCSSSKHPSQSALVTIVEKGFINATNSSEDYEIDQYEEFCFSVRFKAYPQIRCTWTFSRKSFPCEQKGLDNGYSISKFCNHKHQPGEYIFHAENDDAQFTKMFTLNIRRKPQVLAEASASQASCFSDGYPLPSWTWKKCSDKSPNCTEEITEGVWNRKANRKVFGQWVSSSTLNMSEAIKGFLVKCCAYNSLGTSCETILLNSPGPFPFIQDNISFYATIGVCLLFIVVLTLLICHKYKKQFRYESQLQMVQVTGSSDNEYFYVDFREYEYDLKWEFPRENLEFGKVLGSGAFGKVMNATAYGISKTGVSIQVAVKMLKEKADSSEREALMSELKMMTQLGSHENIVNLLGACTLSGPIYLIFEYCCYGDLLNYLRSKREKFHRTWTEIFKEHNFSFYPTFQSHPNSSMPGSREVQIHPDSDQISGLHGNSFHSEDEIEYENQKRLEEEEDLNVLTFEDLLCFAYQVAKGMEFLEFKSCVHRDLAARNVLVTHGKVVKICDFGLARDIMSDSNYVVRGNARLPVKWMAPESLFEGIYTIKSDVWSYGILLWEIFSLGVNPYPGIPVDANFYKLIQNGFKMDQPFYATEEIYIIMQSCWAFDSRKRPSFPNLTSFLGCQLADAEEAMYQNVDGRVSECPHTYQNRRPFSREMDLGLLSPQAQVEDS
Chain of Dual specificity tyrosine-phosphorylation-regulated kinase 1B (Homo sapiens) (Q9Y463 whole entry, looked up): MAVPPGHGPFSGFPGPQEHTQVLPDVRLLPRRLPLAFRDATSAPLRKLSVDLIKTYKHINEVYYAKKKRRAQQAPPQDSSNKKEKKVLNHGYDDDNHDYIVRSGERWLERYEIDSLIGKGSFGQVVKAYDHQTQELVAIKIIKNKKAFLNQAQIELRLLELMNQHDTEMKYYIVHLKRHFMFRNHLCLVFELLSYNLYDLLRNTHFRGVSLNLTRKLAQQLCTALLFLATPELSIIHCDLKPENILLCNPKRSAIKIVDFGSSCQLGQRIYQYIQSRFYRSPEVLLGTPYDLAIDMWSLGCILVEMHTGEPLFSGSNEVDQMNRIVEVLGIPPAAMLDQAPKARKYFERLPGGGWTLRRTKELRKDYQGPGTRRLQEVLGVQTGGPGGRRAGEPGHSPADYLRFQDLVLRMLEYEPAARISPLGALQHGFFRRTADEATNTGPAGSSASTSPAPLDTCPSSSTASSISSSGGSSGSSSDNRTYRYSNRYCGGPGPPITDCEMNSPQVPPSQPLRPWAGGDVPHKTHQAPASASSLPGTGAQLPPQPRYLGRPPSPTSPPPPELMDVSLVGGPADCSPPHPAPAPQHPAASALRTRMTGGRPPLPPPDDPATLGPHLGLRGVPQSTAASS
Chain of Mitogen-activated protein kinase kinase kinase 20 (Homo sapiens) (Q9NYL2 2-800 limits assumed): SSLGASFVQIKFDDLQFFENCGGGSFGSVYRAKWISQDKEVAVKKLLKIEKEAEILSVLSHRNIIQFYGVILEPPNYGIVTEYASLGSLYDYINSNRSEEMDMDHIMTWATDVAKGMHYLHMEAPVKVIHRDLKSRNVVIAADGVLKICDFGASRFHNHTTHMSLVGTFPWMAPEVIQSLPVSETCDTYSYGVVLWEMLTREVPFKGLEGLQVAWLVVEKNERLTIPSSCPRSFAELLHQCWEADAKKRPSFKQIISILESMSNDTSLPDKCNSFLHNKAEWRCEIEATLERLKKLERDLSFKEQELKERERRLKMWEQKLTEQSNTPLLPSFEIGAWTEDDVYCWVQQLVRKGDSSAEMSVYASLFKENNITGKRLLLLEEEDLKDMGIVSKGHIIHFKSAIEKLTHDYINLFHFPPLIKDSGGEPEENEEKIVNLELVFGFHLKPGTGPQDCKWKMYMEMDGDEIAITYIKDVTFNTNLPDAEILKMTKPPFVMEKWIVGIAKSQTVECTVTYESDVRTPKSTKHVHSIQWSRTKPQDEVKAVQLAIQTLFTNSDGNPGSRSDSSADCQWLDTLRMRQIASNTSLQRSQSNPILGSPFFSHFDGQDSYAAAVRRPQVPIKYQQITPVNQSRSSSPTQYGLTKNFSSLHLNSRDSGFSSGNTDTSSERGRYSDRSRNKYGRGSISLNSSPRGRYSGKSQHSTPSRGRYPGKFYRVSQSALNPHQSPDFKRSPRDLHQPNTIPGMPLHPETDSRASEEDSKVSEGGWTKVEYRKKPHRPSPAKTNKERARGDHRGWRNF
Chain of Tyrosine-protein kinase JAK1 (Homo sapiens) (P23458 whole entry): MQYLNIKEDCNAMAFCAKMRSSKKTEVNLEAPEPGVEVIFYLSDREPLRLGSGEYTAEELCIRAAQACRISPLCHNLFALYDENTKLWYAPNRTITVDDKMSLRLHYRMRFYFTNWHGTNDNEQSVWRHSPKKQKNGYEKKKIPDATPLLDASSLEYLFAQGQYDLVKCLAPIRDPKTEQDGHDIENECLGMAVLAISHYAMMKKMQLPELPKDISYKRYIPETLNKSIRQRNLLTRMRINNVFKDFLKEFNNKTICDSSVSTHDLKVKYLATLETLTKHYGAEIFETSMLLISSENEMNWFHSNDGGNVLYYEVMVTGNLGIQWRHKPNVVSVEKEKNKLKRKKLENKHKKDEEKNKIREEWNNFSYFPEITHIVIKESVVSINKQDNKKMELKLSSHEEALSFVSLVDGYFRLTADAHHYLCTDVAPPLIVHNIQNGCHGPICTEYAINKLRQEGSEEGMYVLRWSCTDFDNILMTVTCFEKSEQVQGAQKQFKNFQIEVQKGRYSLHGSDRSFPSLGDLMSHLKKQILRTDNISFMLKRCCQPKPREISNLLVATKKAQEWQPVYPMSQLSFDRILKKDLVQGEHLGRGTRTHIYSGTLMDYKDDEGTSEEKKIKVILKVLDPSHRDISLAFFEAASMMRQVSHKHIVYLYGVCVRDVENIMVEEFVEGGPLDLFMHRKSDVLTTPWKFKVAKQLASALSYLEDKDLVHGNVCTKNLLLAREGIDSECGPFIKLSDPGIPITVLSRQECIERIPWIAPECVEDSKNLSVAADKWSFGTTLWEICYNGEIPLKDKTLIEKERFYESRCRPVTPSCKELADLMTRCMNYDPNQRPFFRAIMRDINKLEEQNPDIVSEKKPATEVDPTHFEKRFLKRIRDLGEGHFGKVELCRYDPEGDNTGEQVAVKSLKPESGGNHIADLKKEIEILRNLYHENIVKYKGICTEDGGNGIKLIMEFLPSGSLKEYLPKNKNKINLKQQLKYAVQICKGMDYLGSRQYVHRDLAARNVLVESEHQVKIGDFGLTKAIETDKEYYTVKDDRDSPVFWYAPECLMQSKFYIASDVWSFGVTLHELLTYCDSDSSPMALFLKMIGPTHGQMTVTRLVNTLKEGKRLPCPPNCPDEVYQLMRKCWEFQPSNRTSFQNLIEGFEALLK
Chain of LIM domain kinase 2 (Homo sapiens) (P53671 whole entry, looked up, the tested form may be a part): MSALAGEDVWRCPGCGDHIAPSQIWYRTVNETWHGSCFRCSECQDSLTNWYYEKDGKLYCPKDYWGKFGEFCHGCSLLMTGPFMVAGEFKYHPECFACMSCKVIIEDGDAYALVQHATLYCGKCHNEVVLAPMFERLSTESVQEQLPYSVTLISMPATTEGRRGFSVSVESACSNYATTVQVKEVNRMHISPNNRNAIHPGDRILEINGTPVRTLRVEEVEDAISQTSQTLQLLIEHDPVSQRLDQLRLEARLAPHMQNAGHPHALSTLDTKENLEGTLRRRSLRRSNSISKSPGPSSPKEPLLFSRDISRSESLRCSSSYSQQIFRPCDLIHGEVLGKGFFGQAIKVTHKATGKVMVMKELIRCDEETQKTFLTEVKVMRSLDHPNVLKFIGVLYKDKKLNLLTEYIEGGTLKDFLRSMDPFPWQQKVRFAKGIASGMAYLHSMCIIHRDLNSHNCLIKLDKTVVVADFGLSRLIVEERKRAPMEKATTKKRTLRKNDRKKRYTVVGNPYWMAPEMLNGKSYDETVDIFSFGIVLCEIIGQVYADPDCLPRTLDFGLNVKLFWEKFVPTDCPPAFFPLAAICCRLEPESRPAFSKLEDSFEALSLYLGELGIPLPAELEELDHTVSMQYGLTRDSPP
Chain of Mitogen-activated protein kinase 11 (Homo sapiens) (Q15759 whole entry): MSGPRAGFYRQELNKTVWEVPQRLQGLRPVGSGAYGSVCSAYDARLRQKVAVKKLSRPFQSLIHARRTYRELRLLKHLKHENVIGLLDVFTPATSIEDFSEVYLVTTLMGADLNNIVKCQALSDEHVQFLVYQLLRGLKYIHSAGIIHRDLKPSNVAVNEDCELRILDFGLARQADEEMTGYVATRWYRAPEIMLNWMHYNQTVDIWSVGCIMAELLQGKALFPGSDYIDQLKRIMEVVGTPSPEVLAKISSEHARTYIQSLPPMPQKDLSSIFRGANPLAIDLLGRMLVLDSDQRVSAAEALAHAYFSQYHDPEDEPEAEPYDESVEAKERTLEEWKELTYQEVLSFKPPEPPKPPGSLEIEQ
Chain of Serine/threonine-protein kinase Sgk3 (Homo sapiens) (Q96BR1 whole entry): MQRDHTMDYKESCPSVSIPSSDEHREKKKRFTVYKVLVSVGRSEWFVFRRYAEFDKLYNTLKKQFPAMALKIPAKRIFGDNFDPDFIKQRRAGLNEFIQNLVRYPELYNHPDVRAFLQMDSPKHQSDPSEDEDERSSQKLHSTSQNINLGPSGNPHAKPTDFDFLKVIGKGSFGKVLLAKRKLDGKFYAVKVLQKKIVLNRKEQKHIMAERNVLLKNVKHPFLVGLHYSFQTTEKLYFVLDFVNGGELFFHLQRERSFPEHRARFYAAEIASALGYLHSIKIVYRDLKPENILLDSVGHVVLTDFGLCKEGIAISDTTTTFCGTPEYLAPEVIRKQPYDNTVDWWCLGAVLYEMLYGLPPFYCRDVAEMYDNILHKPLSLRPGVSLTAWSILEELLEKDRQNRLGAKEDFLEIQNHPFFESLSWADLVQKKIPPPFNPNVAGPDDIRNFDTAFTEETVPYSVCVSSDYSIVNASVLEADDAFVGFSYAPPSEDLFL

Cc1c(NC(=O)c2cc(C(N)=O)nc3cc(F)ccc23)c(C(F)(F)F)nn1Cc1ccc(C(C)(C)C)cc1 [BAY-588]
inactive: residual activity [1] 85% | residual activity [2] 100% | residual activity [3] 91% | inhibition [4] 2.96% | residual activity [5] 100% | residual activity [6] 100% | residual activity [7] 76% | residual activity [8] 89% | residual activity [9] 100% | residual activity [10] 100% | residual activity [11] 56% | residual activity [12] 100% | residual activity [13] 88% | residual activity [14] 100% | residual activity [15] 100% | residual activity [16] 95% | residual activity [17] 83% | residual activity [18] 100% | residual activity [19] 84% | inhibition [20] 18.6% | residual activity [21] 93% | residual activity [22] 100% | residual activity [23] 77% | residual activity [24] 96% | residual activity [25] 96% | residual activity [26] 94% | residual activity [27] 100% | residual activity [28] 97% | residual activity [29] 100% | residual activity [30] 99% | residual activity [31] 97% | residual activity [32] 92% | residual activity [33] 79% | residual activity [34] 96% | residual activity [35] 100% | inhibition [36] 13% | residual activity [37] 81% | residual activity [38] 100% | residual activity [39] 100% | residual activity [40] 100% | residual activity [41] 100% | residual activity [42] 100% | residual activity [43] 100% | residual activity [44] 100%

Cc1c(NC(=O)c2cc(C(N)=O)nc3cc(F)ccc23)c(C(F)(F)F)nn1Cc1ccc(C#N)cc1 [BAY-876]
inactive: residual activity [1] 79% | residual activity [2] 100% | residual activity [3] 88% | inhibition [4] -0.829% | residual activity [5] 100% | residual activity [6] 72% | residual activity [7] 76% | residual activity [8] 78% | residual activity [9] 86% | residual activity [10] 92% | residual activity [11] 86% | residual activity [12] 91% | residual activity [13] 100% | residual activity [14] 71% | residual activity [15] 86% | residual activity [16] 80% | residual activity [17] 82% | residual activity [18] 61% | residual activity [19] 95% | inhibition [20] -3.47% | residual activity [21] 100% | residual activity [22] 81% | residual activity [23] 83% | residual activity [24] 74% | residual activity [25] 84% | residual activity [26] 83% | residual activity [27] 75% | residual activity [28] 77% | residual activity [29] 77% | residual activity [30] 100% | residual activity [31] 65% | residual activity [32] 74% | residual activity [33] 95% | residual activity [34] 100% | residual activity [35] 100% | inhibition [36] 29% | residual activity [37] 87% | residual activity [38] 68% | residual activity [39] 84% | residual activity [40] 60% | residual activity [41] 56% | residual activity [42] 81% | residual activity [43] 100% | residual activity [44] 97%

— ChEMBL document CHEMBL4507267 (2021)
